{"source": "patent US7812045B2", "about": "“Antifungal triazole derivatives” (Daewoong Pharmaceutical Co., Ltd., priority 2005, dated 2010)", "key": {"[1]": {"test_system": "Candida albicans (ATCC 36082)", "assay": "In vivo assay for antifungal activity (survival of infected mice)", "details": "ICR mice infected i.v. with Candida albicans ATCC 36082; for % Survival on Day 21: 20 mg/kg orally once a day for seven days (day 0 to day 6), groups of 10", "experimental": "Candida albicans (ATCC 36082) was grown in YM broth on a rotary shaker (200 rpm, 26° C.) for about 12 hours to a concentration of 2.5×10^7 CFU/ml and used to infect ICR mice at a dose of 0.2 ml/head via caudal veins. Suspensions or solutions of the azole compounds in a 25% beta-hydroxypropyl methylcellulose base were orally administered at a dose of 20 mg/kg to respective infected ICR mice in groups of 10, the condition and body weights of the mice were monitored, and autopsies were finally conducted. For a negative control, the vehicle alone was used while fluconazole was administered to a positive control. The mice were inoculated once with the fungal preparation on the day of commencement of the administration. The test materials of interest and the positive control material were orally administered to the inoculated mice once a day for seven days from day 0 to day 6, with the first oral administration made five hours after the fungal inoculation (day 0). The periods of time for which the infected mice lived were counted.\nThe number of mice which survived the fungal infection for 21 days following the inoculation was represented as % survival for each test group, and the results are given in Table 11, below. All members of the negative control were dead 8 days after the fungal infection, while all of the groups administered with Compound 50 were dead 18 days after the fungal infection."}, "[2]": {"test_system": "Cryptococcus neoformans ATCC 4065", "assay": "In vitro assay for antifungal activity (MIC90)", "type": "cell-based", "details": "for MIC90: ATCC4065, RPMI 1640, duplicate, read-out: MIC90 (concentration at which 90% of the fungi were inhibited compared to the negative control)", "experimental": "(§1) Fungal strains to be tested were inoculated onto Sabouraud dextrose agar, YM agar, and potato dextrose agar and cultured at 35° C. for two to three days. Individual single colonies of the yeast fungi selected out of the cultured strains were suspended in 5 ml of 0.85% sterile saline, followed by correction to adjust the absorbance thereof at 530 nm to 0.108. The suspensions were diluted serially by 1:50 and then 1:20 in RPMI 1640 media to prepare liquid inocula ranging in cell count from 1.0×10^3 to 5.0×10^3 CFU/ml. As for filamentous fungi, their spores were suspended in 0.85% sterile saline and the suspensions were corrected with sterile saline to show optical transmittance at 530 nm of 80 to 82%. A dilution of 1:50 was made with RPMI 1640 media to prepare liquid inocula having cell counts from […] to 5×10^4 CFU/ml.\n(§2) Antifungal samples were prepared by diluting the compounds of the present inventions in RPMI 1640 media to serial concentrations from 0.0625 to 32 μg/ml. As a vehicle, DMSO was contained in a final concentration of 1% (V/V) in the antifungal samples. 0.1 ml of each of the dilutions in series was added to equal volume of each of the fungal inocula."}, "[3]": {"test_system": "Aspergillus terreus ATCC 28301", "assay": "In vitro assay for antifungal activity (MIC90)", "type": "cell-based", "details": "duplicate; for MIC90: ATCC28301, RPMI 1640, growth read after 48 hours, read-out: MIC90 (concentration at which 90% of the fungi were inhibited compared to the negative control)", "experimental": "as §1, §2"}, "[4]": {"test_system": "Candida glabrata ATCC 34138", "assay": "In vitro assay for antifungal activity (MIC90)", "type": "cell-based", "details": "duplicate; for MIC90: Nakaseomyces glabratus, ATCC34138, RPMI 1640, growth read after 24 hours, read-out: MIC90 (concentration at which 90% of the fungi were inhibited compared to the negative control)", "experimental": "as §1, §2"}, "Candida krusei ATCC 6258": {"test_system": "Candida krusei ATCC 6258", "assay": "In vitro assay for antifungal activity (MIC90)", "type": "cell-based", "details": "duplicate; for MIC90: Pichia kudriavzevii, ATCC6258, RPMI 1640, growth read after 24 hours, read-out: MIC90 (concentration at which 90% of the fungi were inhibited compared to the negative control)", "experimental": "as §1, §2"}, "[5]": {"test_system": "Aspergillus niger ATCC 9142", "assay": "In vitro assay for antifungal activity (MIC90)", "type": "cell-based", "details": "duplicate; for MIC90: ATCC9142, RPMI 1640, growth read after 48 hours, read-out: MIC90 (concentration at which 90% of the fungi were inhibited compared to the negative control)", "experimental": "as §1, §2"}, "[6]": {"test_system": "Aspergillus flavus ATCC MYA-1004", "assay": "In vitro assay for antifungal activity (MIC90)", "type": "cell-based", "details": "RPMI 1640, growth read after 48 hours, duplicate; for MIC90: read-out: MIC90 (concentration at which 90% of the fungi were inhibited compared to the negative control)", "experimental": "as §1, §2"}, "[7]": {"test_system": "Candida albicans ATCC 32033", "assay": "In vitro assay for antifungal activity (MIC90)", "type": "cell-based", "details": "duplicate; for MIC90: ATCC32033, RPMI 1640, growth read after 24 hours, read-out: MIC90 (concentration at which 90% of the fungi were inhibited compared to the negative control)", "experimental": "as §1, §2"}, "[8]": {"test_system": "Aspergillus fumigatus ATCC MYA-1163", "assay": "In vitro assay for antifungal activity (MIC90)", "type": "cell-based", "details": "RPMI 1640, growth read after 48 hours, duplicate; for MIC90: read-out: MIC90 (concentration at which 90% of the fungi were inhibited compared to the negative control)", "experimental": "as §1, §2"}, "HepG2 cells [9]": {"test_system": "HepG2 cells", "assay": "Assay for cytotoxicity in human hepatocytes (Neutral red)", "details": "overnight incubation, absorbance at 540 nm, triplicate, compound concentration not given"}, "Assay for acute toxicity": {"assay": "Assay for acute toxicity", "type": "in vivo", "details": "mice; oral administration, to a dose of 1000 mg/kg; observed for two weeks; suspension in 25% beta-hydroxypropyl methylcellulose base or polyethylene glycol 400"}, "HepG2 cells [10]": {"test_system": "HepG2 cells", "description": "HepG2 cells were aliquoted at a population of 5×10^4 counts per well of 96-well plates and grown at 37° C. in a 5% CO2 incubator for 1 day. The culture medium in each well was replaced with a fresh medium containing the compounds of interest, followed by overnight incubation in the incubator. Following the addition of 100 μl of a 100 μg/ml Neutral red solution into each well, the cells were stained for 3 hours in the incubator and fixed in 1% formaldehyde with 1% CaCl2. The cells were destained in 1% glacial acetic acid plus 50% ethanol, followed by measurement for absorbance at 540 nm. Cytotoxicity was expressed as percentages of optical density relative to that of the control, treated with none of the compounds."}, "[11]": {"details": "RPMI 1640, growth read after 48 hours"}, "[12]": {"details": "RPMI 1640, growth read after 24 hours"}}, "note": "Read-outs that look alike come from different tables or passages of the source."}
{"molecule": "C[C@@H](N1NCc2ccccc21)[C@](O)(Cn1cncn1)c1ccc(F)cc1F", "note": "[Example 50, (2R,3R)-2-(2,4-Difluorophenyl)-3-(2H-indazol-1-yl)-1-(1H-1,2,4-triazol-1-yl)butan-2-ol]", "values": [{"measurement": "time after the fungal infection at which all mice of the group were dead", "setting": "[1]; 20 mg/kg orally once a day for seven days", "value": 18, "unit": "days"}, {"measurement": "% Survival on Day 21", "setting": "[1]", "value": 0, "unit": "%"}, {"measurement": "MIC90", "setting": "[2]", "value": 0.063, "unit": "µg/mL"}, {"measurement": "MIC90", "setting": "[3]", "value": 4, "unit": "µg/mL"}, {"measurement": "MIC90", "setting": "[4]", "value": 2, "unit": "µg/mL"}, {"measurement": "MIC90", "setting": "Candida krusei ATCC 6258", "value": 0.5, "unit": "µg/mL"}, {"measurement": "MIC90", "setting": "[5]", "value": 8, "unit": "µg/mL"}, {"measurement": "MIC90", "setting": "[6]", "value": 2, "unit": "µg/mL"}, {"measurement": "MIC90", "setting": "[7]", "value": "≤ 0.015", "unit": "µg/mL"}, {"measurement": "MIC90", "setting": "[8]", "value": 4, "unit": "µg/mL"}, {"measurement": "Cytotoxicity (percentages of optical density relative to that of the control)", "setting": "HepG2 cells [9]", "value": 5.2, "unit": "%"}, {"measurement": "acute toxicity: toxic syndromes observed", "setting": "Assay for acute toxicity", "value": "no toxic syndromes"}]}
{"molecule": "C[C@@H](n1nc(Cl)c2ccccc21)[C@](O)(Cn1cncn1)c1ccc(F)cc1F", "note": "[Example 52]", "values": [{"measurement": "Cytotoxicity (percentages of optical density relative to that of the control)", "setting": "HepG2 cells [10]", "value": 5.6, "unit": "%"}]}
{"molecule": "Cc1c2c(Cl)cccc2nn1[C@H](C)[C@](O)(Cn1cncn1)c1ccc(F)cc1F", "note": "[Example 68]", "values": [{"measurement": "Cytotoxicity (percentages of optical density relative to that of the control)", "setting": "HepG2 cells [10]", "value": 2.4, "unit": "%"}]}
{"molecule": "Cc1nn([C@H](C)[C@](O)(Cn2cncn2)c2ccc(F)cc2F)c2cccc(Cl)c12", "note": "[Example 69]", "values": [{"measurement": "Cytotoxicity (percentages of optical density relative to that of the control)", "setting": "HepG2 cells [10]", "value": 1.6, "unit": "%"}]}
{"molecule": "C[C@@H](n1ncc2cc(NCc3cccc(Cl)c3)ccc21)[C@](O)(Cn1cncn1)c1ccc(F)cc1F", "note": "[Example 240]", "values": [{"measurement": "Cytotoxicity (percentages of optical density relative to that of the control)", "setting": "HepG2 cells [10]", "value": 5.2, "unit": "%"}]}
{"molecule": "C[C@@H](N1Cc2cc(NCc3ccc(Cl)cc3)ccc2N1)[C@](O)(Cn1cncn1)c1ccc(F)cc1F", "note": "[Example 245, (2R,3R)-3-(5-(4-chlorobenzylamino)-1H-indazol-2-yl)-2-(2,4-difluorophenyl)-1-(1H-1,2,4-triazol-1-yl)butan-2-ol]", "values": [{"measurement": "% Survival on Day 21", "setting": "[1]", "value": 40, "unit": "%"}, {"measurement": "MIC90", "setting": "[2]", "value": 0.125, "unit": "µg/mL"}, {"measurement": "MIC90", "setting": "[3]", "value": 0.5, "unit": "µg/mL"}, {"measurement": "MIC90", "setting": "[4]", "value": 4, "unit": "µg/mL"}, {"measurement": "MIC90", "setting": "Candida krusei ATCC 6258", "value": 0.5, "unit": "µg/mL"}, {"measurement": "MIC90", "setting": "[5]", "value": 2, "unit": "µg/mL"}, {"measurement": "MIC90", "setting": "[6]", "value": 0.5, "unit": "µg/mL"}, {"measurement": "MIC90", "setting": "[7]", "value": "≤ 0.015", "unit": "µg/mL"}, {"measurement": "MIC90", "setting": "[8]", "value": 0.5, "unit": "µg/mL"}, {"measurement": "Cytotoxicity (percentages of optical density relative to that of the control)", "setting": "HepG2 cells [9]", "value": 9.9, "unit": "%"}, {"measurement": "acute toxicity: toxic syndromes observed", "setting": "Assay for acute toxicity", "value": "no toxic syndromes"}]}
{"molecule": "C[C@@H](n1ncc2cc(N(C)C)ccc21)[C@](O)(Cn1cncn1)c1ccc(F)cc1F", "note": "[Example 310]", "values": [{"measurement": "% Survival on Day 21", "setting": "[1]", "value": 40, "unit": "%"}, {"measurement": "MIC90 (concentration at which 90% of the fungi were inhibited compared to the negative control)", "setting": "[2]; RPMI 1640, duplicate", "value": 0.5, "unit": "µg/mL"}, {"measurement": "MIC90 (concentration at which 90% of the fungi were inhibited compared to the negative control)", "setting": "[3]; [11]", "value": 2, "unit": "µg/mL"}, {"measurement": "MIC90 (concentration at which 90% of the fungi were inhibited compared to the negative control)", "setting": "[4]; [12]", "value": 8, "unit": "µg/mL"}, {"measurement": "MIC90 (concentration at which 90% of the fungi were inhibited compared to the negative control)", "setting": "Candida krusei ATCC 6258; [12]", "value": 1, "unit": "µg/mL"}, {"measurement": "MIC90 (concentration at which 90% of the fungi were inhibited compared to the negative control)", "setting": "[5]; [11]", "value": 2, "unit": "µg/mL"}, {"measurement": "MIC90 (concentration at which 90% of the fungi were inhibited compared to the negative control)", "setting": "[6]", "value": 1, "unit": "µg/mL"}, {"measurement": "MIC90 (concentration at which 90% of the fungi were inhibited compared to the negative control)", "setting": "[7]; [12]", "value": 0.063, "unit": "µg/mL"}, {"measurement": "MIC90 (concentration at which 90% of the fungi were inhibited compared to the negative control)", "setting": "[8]", "value": 2, "unit": "µg/mL"}, {"measurement": "acute toxicity: toxic syndromes observed", "setting": "Assay for acute toxicity", "value": "no toxic syndromes"}]}
